# Values of other authors, collected in patent US20210290639A1, “IMMEDIATE RELEASE FORMULATION OF A TRIPLE COMBINATION OF ACTIVE PHARMACEUTICAL INGREDIENTS USEFUL IN THE TREATMENT OF POLYCYSTIC OVARY SYNDROME” (priority 2018, published 2021).
# Settings: low solubility and high permeability
row,BCS class,SMILES
1,Class II,"CC(=O)S[C@@H]1CC2=CC(=O)CC[C@]2(C)[C@H]2CC[C@@]3(C)[C@@H](CC[C@@]34CCC(=O)O4)[C@H]12 [spironolactone, 7α-Acetylthio-3-oxo-17α-pregn-4-ene-21,17β-carbolactone]"
2,Class II,"CCc1ccc(CCOc2ccc(CC3SC(=O)NC3=O)cc2)nc1 (racemic) [pioglitazone, ((±)-5-[p-[2-(5-Ethyl-2-pyridyl)ethoxy]benzyl]-2,4-thiazolidinedione]"
